The record followed here is US8969542B2, “HPV polyepitope constructs and uses thereof” (priority 2007, dated 2015).

Where no end group is shown, it is not given here.

A word on the IC50: it is the concentration that inhibits the measured activity by half. A lower IC50 goes with greater potency in that assay.

The target in one assay is HLA A0201 (Homo sapiens, UniProt P04439, D140Y/D185E/D98H/E176V/E277Q/G131W/G231S/I119V/I121R/I166T/I218V/L300P/L318F/N151K/N90K/P208A/P217A/Q86G/Q94H/R138H/R169H/T345S). The assay can be described thus: HLA class I competition binding assay using soluble HLA.
The target of a further assay is DRB1*0901 (Homo sapiens, UniProt P01903+P01911, A100R/A103E/D57H/D86V/F55Y/F60I/F76Y/I96F/K127E/L162R/M171V/P40D/Q125H/Q99R/R33Q/R42F/S133A/S66N/T210M/V115G/W38K/Y107V/Y59G/Y89S). The assay can be described thus: biochemical.
The target in the next assay is HLA A0203 (Homo sapiens, UniProt P04439, A173T/D140Y/D185E/D98H/E277Q/G131W/G231S/I119V/I121R/I166T/I218V/L180W/L300P/L318F/N151K/N90K/P208A/P217A/Q86G/Q94H/R138H/R169H/T345S). The assay can be described thus: HLA class I competition binding assay using soluble HLA.
For the next assay, the target named is HLA A0202 (Homo sapiens, UniProt P04439, D140Y/D185E/D98H/E176V/E277Q/G131W/G231S/I119L/I121R/I166T/I218V/L180W/L300P/L318F/N151K/N90K/P208A/P217A/Q67R/Q86G/Q94H/R138H/R169H/T345S). Described as above.
The next assay has as its target HLA A0206 (Homo sapiens, UniProt P04439, D140Y/D185E/D98H/E176V/E277Q/F33Y/G131W/G231S/I119V/I121R/I166T/I218V/L300P/L318F/N151K/N90K/P208A/P217A/Q86G/Q94H/R138H/R169H/T345S). Described as above.
A further assay deals with HLA A6802 (Homo sapiens, UniProt P04439, A269V/D140Y/D185E/E176V/E277Q/E87N/F33Y/G231S/I121R/I166T/I218V/L180W/L300P/L318F/N151K/P208A/P217A/Q86R/R138H/R169H/S129P/T345S/V36M). The assay is described as above.
For another assay, the target named is HLA A0101 (Homo sapiens, UniProt P04439, A114D/A174V/A182V/D101N/D185E/E176A/E190D/L180R/Q94H/R68K/S129P/T187R/V100A/V91M/W191G). The assay is described as above.
The target of another assay is DRB5*0101 (DR2w2beta-2) (Homo sapiens, UniProt P01903+Q30154). The experiment in a line: biochemical.
The next assay addresses DRB1*1101 (DR5) (Homo sapiens, UniProt P01903+P01911, A100R/A169T/A87E/I96F/K41T/L162R/M171V/P40S/Q125H/Q178H/Q39Y/Q99D/R42S/S66Y/T262R/V115G/W38E). The assay can be described thus: biochemical.
The next assay addresses DRB1*0802 (DR8w2) (Homo sapiens, UniProt P01903+P01911, A100R/A103L/A169T/F76Y/H45Y/I96F/K41T/L162R/M171V/P40S/Q125H/Q178H/Q39Y/Q99D/R218S/R42G/S66Y/V115G/W38E). The experiment in a line: biochemical.
Another assay has as its target DRB1*0701 (DR7) (Homo sapiens, UniProt P01903+P01911, A100R/A102G/A103Q/D57E/D86V/E43K/F76Y/K127E/L162R/M171V/P40G/Q125H/Q99D/R33Q/R42Y/R54Q/S133A/S66F/T210M/V115G/Y107V/Y59L/Y89S). The assay can be described thus: biochemical.

Take TLYAHIQCL [compound 72]: at HLA A0201, the IC50 turned out to be 34 nM.
In turn, `CC[C@H](C)[C@H](NC(=O)CNC(=O)[C@@H](NC(=O)[C@H](CCCCN)NC(=O)[C@H](Cc1ccc(O)cc1)NC(=O)[C@H](Cc1c[nH]c2ccccc12)NC(=O)[C@H](Cc1ccc(O)cc1)NC(=O)[C@@H](N)CC(C)C)[C@@H](C)O)C(=O)N[C@@H](CO)C(=O)N[C@@H](CC(N)=O)C(=O)N[C@H](C(=O)N[C@@H](CO)C(=O)N[C@@H](CCC(=O)O)C(=O)N[C@H](C(=O)N[C@@H](Cc1ccc(O)cc1)C(=O)O)C(C)C)[C@@H](C)CC` [compound 89] came in with an IC50 against DRB1*0901 of 90 nM.
On to TVYVFCFLL [compound 29], for which the IC50 at HLA A0201 was found to be 175 nM; at HLA A0203, 769 nM; at HLA A0202, 587 nM; on HLA A0206, 26 nM.
In the case of FLFTDLTIV [compound 53], the 50% inhibitory concentration (IC50) is 1900 nM at HLA A6802, 3.5 nM on HLA A0203, 1.3 nM at HLA A0202 and 20 nM on HLA A0206.
ISDYRHYCY [compound 5] came in with an IC50 on HLA A0101 of 10 nM. This counts as double-digit nanomolar.
On to GTLGIVCPV [compound 11], for which the IC50 on HLA A0201 turned out to be 20 nM.
Consider `CC[C@H](C)[C@H](NC(=O)[C@H](CC(=O)O)NC(=O)[C@H](CCC(N)=O)NC(=O)[C@H](CC(C)C)NC(=O)[C@@H](N)CO)C(=O)N[C@@H](CCC(=O)O)C(=O)N[C@H](C(=O)N[C@H](C(=O)N[C@@H](CS)C(=O)N[C@H](C(=O)O)C(C)C)[C@@H](C)O)[C@@H](C)CC` [compound 30], for which the half-maximal inhibitory concentration (IC50) on HLA A0201 was 153 nM; on HLA A6802 it was over 20000 nM; at HLA A0203, 38 nM.
On DRB5*0101 (DR2w2beta-2), `CC[C@H](C)[C@H](NC(=O)[C@@H](NC(=O)[C@H](CC(C)C)NC(=O)[C@H](CC(=O)O)NC(=O)[C@@H](NC(=O)[C@H](Cc1ccccc1)NC(=O)[C@H](C)NC(=O)[C@H](Cc1ccccc1)NC(=O)[C@H](CC(=O)O)NC(=O)[C@H](CC(C)C)NC(=O)[C@@H](N)C(C)C)[C@@H](C)O)[C@@H](C)O)C(=O)N[C@H](C(=O)N[C@@H](Cc1ccc(O)cc1)C(=O)N[C@@H](CCCNC(=N)N)C(=O)N[C@@H](CC(=O)O)C(=O)O)C(C)C` [compound 111] registered an IC50 of over 20 µM.
On DRB1*1101 (DR5), `CC(C)C[C@H](NC(=O)[C@H](CCC(N)=O)NC(=O)[C@H](CCC(N)=O)NC(=O)[C@H](CC(C)C)NC(=O)[C@@H](NC(=O)[C@H](CCCNC(=N)N)NC(=O)[C@@H](N)CC(C)C)[C@@H](C)O)C(=O)N[C@@H](Cc1ccccc1)C(=O)N[C@@H](CC(C)C)C(=O)N[C@@H](CO)C(=O)N[C@H](C(=O)N[C@@H](CC(C)C)C(=O)N[C@@H](CO)C(=O)N[C@@H](Cc1ccccc1)C(=O)N[C@H](C(=O)O)C(C)C)[C@@H](C)O` [compound 121] yielded an IC50 of 1.67 µM.
The compound `CC(C)C[C@H](NC(=O)[C@H](CCC(N)=O)NC(=O)[C@H](CCC(N)=O)NC(=O)[C@@H](N)Cc1ccccc1)C(=O)N[C@@H](Cc1ccccc1)C(=O)N[C@@H](CC(C)C)C(=O)N[C@@H](CC(N)=O)C(=O)N[C@H](C(=O)N[C@@H](CC(C)C)C(=O)N[C@@H](CO)C(=O)N[C@@H](Cc1ccccc1)C(=O)N[C@H](C(=O)N[C@@H](CS)C(=O)N1CCC[C@H]1C(=O)N[C@@H](Cc1c[nH]c2ccccc12)C(=O)O)C(C)C)[C@@H](C)O` [compound 105] registered an IC50 on DRB1*0802 (DR8w2) of 9 µM.
Consider FIYIPLFVI [compound 52], for which the IC50 at HLA A0201 was 26 nM; on HLA A6802 it was 157 nM; on HLA A0203, 47 nM; on HLA A0206 it was 8.1 nM.
Take SLVFLLCFSV [compound 74]: the results for the concentration for half-maximal inhibition (IC50) on HLA A0201 and at HLA A6802 were 8.5 nM and 20 nM, respectively.
Turning to YQFAFKDLCV [compound 76], the 50% inhibitory concentration (IC50) on HLA A6802 came out at 3700 nM; on HLA A0203, 4.2 nM; on HLA A0202, 1.3 nM; on HLA A0206, 10 nM.
For `CC[C@H](C)[C@H](NC(=O)[C@H](Cc1c[nH]c2ccccc12)NC(=O)[C@H](CCC(=O)O)NC(=O)[C@@H]1CCCN1)C(=O)N[C@@H](CCC(N)=O)C(=O)N[C@@H](CCCNC(=N)N)C(=O)N[C@@H](CCC(N)=O)C(=O)N[C@H](C(=O)N[C@H](C(=O)N[C@@H](CC(C)C)C(=O)N[C@@H](CCC(N)=O)C(=O)N[C@@H](Cc1c[nH]cn1)C(=O)N[C@@H](CO)C(=O)N[C@@H](Cc1ccccc1)C(=O)N[C@@H](CC(N)=O)C(=O)O)C(C)C)[C@@H](C)O` [compound 90], the IC50 on DRB1*0701 (DR7) was over 20 µM.
Regarding YVVWDSIYYI [compound 73], the 50% inhibitory concentration (IC50) stood at 30 nM on HLA A6802, 248 nM on HLA A0203 and 20 nM at HLA A0206.
As for ILYAHIQCL [compound 27], the half-maximal inhibitory concentration (IC50) is over 20000 nM on HLA A6802, 8.5 nM on HLA A0202 and 236 nM at HLA A0206.
On to CLYLHIQSL [compound 6], for which the results for the half-inhibitory concentration (IC50) at HLA A6802, at HLA A0202 and on HLA A0206 were 1780 nM, 45 nM and 100 nM, respectively.
In turn, `CC[C@H](C)[C@H](NC(=O)[C@H](Cc1c[nH]cn1)NC(=O)[C@H](C)NC(=O)[C@H](Cc1ccc(O)cc1)NC(=O)[C@H](CC(C)C)NC(=O)[C@@H](NC(=O)[C@H](Cc1ccccc1)NC(=O)[C@@H]1CCCN1C(=O)[C@H](CCC(N)=O)NC(=O)[C@@H](NC(=O)[C@H](CC(C)C)NC(=O)[C@@H](NC(=O)[C@H](CCCCN)NC(=O)[C@@H](N)Cc1ccccc1)[C@@H](C)O)[C@@H](C)CC)[C@@H](C)CC)C(=O)N[C@@H](CCC(N)=O)C(=O)O` [compound 98] came in with a 50% inhibitory concentration (IC50) against DRB1*1101 (DR5) of 6.69 µM.
FVYIPLFLI [compound 8]: the 50% inhibitory concentration (IC50) was found to be 206 nM at HLA A0201, 251 nM on HLA A6802, 63 nM on HLA A0203 and 323 nM at HLA A0202.
For `CC[C@H](C)[C@H](NC(=O)[C@H](Cc1c[nH]cn1)NC(=O)[C@H](C)NC(=O)[C@H](Cc1ccc(O)cc1)NC(=O)[C@H](CC(C)C)NC(=O)[C@@H](NC(=O)[C@H](C)NC(=O)[C@@H]1CCCN1C(=O)[C@H](CCCCN)NC(=O)[C@@H](NC(=O)[C@H](CC(C)C)NC(=O)[C@@H](NC(=O)[C@H](CCCCN)NC(=O)[C@@H](N)Cc1ccccc1)[C@@H](C)O)[C@@H](C)CC)[C@@H](C)O)C(=O)N[C@@H](CCC(N)=O)C(=O)O` [compound 115], the IC50 on DRB5*0101 (DR2w2beta-2) was determined as 1 µM.
On to KLTNTGLYNV [compound 31], for which the IC50 came to 688 nM at HLA A6802, 2.9 nM at HLA A0202 and 83 nM at HLA A0206.
Regarding TLHDIILECV [compound 9], the IC50 was 3.6 nM at HLA A0201; 2950 nM on HLA A6802; 1.9 nM at HLA A0203; 0.54 nM at HLA A0202; 92 nM at HLA A0206.
At HLA A0201, KLLSKLLCV [compound 7] yielded a concentration for half-maximal inhibition (IC50) of 31 nM.
As for `CC[C@H](C)[C@H](N)C(=O)N[C@@H](CCCNC(=N)N)C(=O)N[C@H](C(=O)N[C@@H](CC(C)C)C(=O)N[C@@H](CCC(=O)O)C(=O)N[C@@H](CC(=O)O)C(=O)N[C@@H](CC(C)C)C(=O)N[C@@H](CC(C)C)C(=O)N[C@@H](CCSC)C(=O)NCC(=O)N[C@H](C(=O)N[C@@H](CC(C)C)C(=O)NCC(=O)N[C@H](C(=O)N[C@H](C(=O)O)C(C)C)[C@@H](C)CC)[C@@H](C)O)[C@@H](C)O` [compound 97], the IC50 against DRB1*1101 (DR5) is over 20 µM; at DRB5*0101 (DR2w2beta-2), over 20 µM; on DRB1*0901 it was over 20000 nM; against DRB1*0802 (DR8w2), over 20 µM.
As to KLTNKGICDL [compound 54], the IC50 on HLA A6802 is over 20000 nM; on HLA A0203 it was 585 nM; at HLA A0202, 440 nM; at HLA A0206, 484 nM.
